Consider five compounds from article PMC12559140 (Molecular Neurobiology, 2025).

In data set [1] the test system is SH-SY5Y cells. As to conditions: cited from earlier work.
In data set [2] the test system is (d)-SH-SY5Y cells. Kind of data set: Cell viability (MTT), H2O2 alone or co-treatment with H2O2 and drugs. As to conditions: for cell viability compared to H2O2 alone: 10 μM drug + 250 µM H2O2, 24 h. The protocol:
(§1) Cells were cultured under standard conditions and used for experiments between passages 5 and 20 to maintain phenotypic consistency and avoid passage-related variability. To ensure the validity of the experimental data and avoid confounding effects, the cell line was routinely tested for Mycoplasma contamination using a PCR-based Mycoplasma detection kit (MycoFluor™ Mycoplasma Detection Kit, Thermo Fisher Scientific). […] Differentiated cells were plated at 1.0 × 10^4 cell/cm^2 confluency and treated with retinoic acid (RA) (R2625-50MG, Sigma Aldrich) at a 10 µM concentration in DMEM/F12 1% FBS for 6 days with RA pulses on every other day. The (d)-SH-SY5Y cells with acquired neuronal properties were used in our experiments involving toxin application and drug treatments.
(§2) (d)-SH-SY5Y cells were cultured in collagen-coated 96-well plates (1.0 × 10^4 cell/well). […] The appropriate dose and time for H2O2 used in our study were determined according to the findings obtained in a preliminary study. Data are expressed as a percentage of cell viability compared to control cultures.

For data set [3], the system named is cleaved caspase-3. Kind of data set: Cleaved caspase-3 ELISA in H2O2-treated cells. The format is cell-based, human. As to conditions: 250 μM H2O2 alone (vs untreated) or with CNI (vs H2O2 alone), 24 h, n = 2. As to the method:
The quantification of cleaved caspase-3 levels in cell lysates was performed using a commercially available human cleaved caspase-3 ELISA kit (E6970HU, BT Lab), according to the manufacturer’s instructions. SH-SY5Y cells were seeded in collagen-coated 6-well plates (1.0 × 10^5 cell/well) and differentiated. Cells were exposed to 250 μM H2O2 in the presence or absence of CNI compounds for 24 h. Following treatment, cells were collected, diluted with PBS, and destroyed by multiple freeze–thaw cycles, both treated and untreated. The levels of cleaved caspase-3 in the cell lysates were measured in the order recommended by the manufacturer. The BCA assay (44,132, Expedeon) was used to compare the total protein contents in treated and untreated cells.
(An ELISA detects its analyte on a solid surface through an enzyme-linked reagent.)

For data set [4], the system named is (d)-SH-SY5Y cells. Kind of data set: Neurite analysis by microscopy (NeuronJ/ImageJ). It is filed as cell-based, human. As to conditions: 250 µM H2O2 alone or with 0.1 µM drug. As to the method:
SH-SY5Y cells were cultivated on collagen-coated 6-well plates at a density of 1.0 × 10^5 cells/well. Following the differentiation and treatments, microscopic examination of the cell groups was assessed using an inverted microscope (Zeiss Axio) at × 20 objective. Images were taken with multiple independent images for an individual treatment. Images were analyzed for neurite lengths and the number of homogeneous neurites per cell by NeuronJ of ImageJ software; soma size was determined by the Neurphology plugin of ImageJ [46]. Cells with cell extensions longer than twice the cell body diameter were considered neurite-bearing cells. 100 cells were counted from 10 different areas selected to determine neurite density (number of neurites per cell) and neurite length for each sample. The data were expressed as the mean ± SEM from three independent experiments.

For data set [5], the system named is AChE mRNA. Kind of data set: AChE mRNA expression by qRT-PCR. The format is cell-based. To be noted: 250 µM H2O2 alone (vs control) or with 0.1 µM drug (vs H2O2 alone), 24 h, 2^−ΔΔCt, GAPDH. As to the method:
SH-SY5Y cells were cultivated on collagen-coated 6-well plates at a density of 1.0 × 10^5 cells/well. […]. The purity and concentration of the isolated RNA were assessed by measuring absorbance at 260 nm and 280 nm. cDNA was synthesized from 1 μg of total RNA using the OneScript Plus cDNA Synthesis Kit (G236, Abmgood). Subsequent to cDNA synthesis, quantitative real-time PCR (qRT-PCR) was conducted on a Roche Light Cycler 96 real-time PCR System utilizing the SYBR Green PCR Kit BlasTaq 2X qPCR MasterMix (G891, Abmgood) according to established protocols. All amplification reactions for each sample were performed in triplicate, and the experiments were repeated at least three times. The relative mRNA expression levels were quantified using the 2^−ΔΔCt method, normalizing the data against glyceraldehyde-3-phosphate dehydrogenase (GAPDH). Primer sequences are listed as follows: GAPDH forward, 5′-[…]-3′ and reverse, 5′-[…]-3′; AChE forward, 5′-[…]-3′ and reverse, 5′-[…]-3′.
(In general: Real-time PCR tracks product formation cycle by cycle.)

The target of data set [6] is T1, AChE (Homo sapiens, UniProt P22303). Kind of data set: Cellular AChE activity (ELISA). It is filed as cell-based. The arrangement: To extract the total protein from the treated (d)-SH-SY5Y cells; endogenous in cells; host or cells: differentiated SH-SY5Y (human neuroblastoma). As to conditions: (d)-SH-SY5Y. The protocol:
SH-SY5Y cells were cultivated on collagen-coated 6-well plates at a density of 1.0 × 10^5 cells/well. […] To extract the total protein from the treated (d)-SH-SY5Y cells, the cultures were rinsed twice with cold phosphate-buffered saline (PBS), followed by scraping to collect the cells. The resulting cell suspension was transferred to 1.5 mL tubes, which were then centrifuged at 10,000 × g for 5 min at 4 °C. The supernatant was carefully discarded, and the cell pellets were lysed using RIPA buffer. The total protein concentration present in the extracts was quantified using the Bicinchoninic Acid (BCA) assay. Any remaining protein was stored at − 80 °C until the time of enzymatic analysis. Relative AChE activity was determined using an equal amount of total protein and employing an Enzyme-Linked Immunosorbent Assay (ELISA) (Human AchE (Acetylcholinesterase) Kit, ELK4614-96 T), following the manufacturer’s guidelines.

The target of data set [7] is T1, AChE. Kind of data set: biochemical. The protocol:
The inhibition of AChE activity in vitro was evaluated following the methodology outlined by Ellman et al., with some modifications implemented. […] The enzyme activity was expressed as a percentage relative to a control assay conducted without any inhibitor. The percentage inhibition of AChE activity was determined by comparing the absorbance values with those of the negative control, using the following equation:
AChE inhibition % = ((A0 − A1)/A0) × 100.
In this equation, A0 represents the absorbance of the control lacking the sample, while A1 indicates the absorbance of the sample tested.
Dose–response curves were generated and analyzed using GraphPad Prism version 8.0, applying a sigmoidal dose–response model with variable slope (four-parameter logistic regression). IC50 values were derived from the fitted curves and are expressed in micromolar (µM).

Data set [8] relates to (d)-SH-SY5Y cells. Kind of data set: Cell viability (MTT), drugs alone. As to conditions: 0.01–10 μM, (d)-SH-SY5Y, no oxidative stress. The protocol:
as §1, §2

Data set [9] can be described thus: Cell viability (MTT), drugs alone. To be noted: human. The protocol: as §1, §2
Where [10] appears, read: 0.1 μM drug + 250 µM H2O2, 24 h, vs H2O2 alone.

The structures appear in SMILES notation. Where “and” joins values, the source holds several entries; their conditions need not be identical. Equal values may be shown once. Entries after “also recorded” stand apart in the source; their conditions may differ. Read-outs that look alike come from different tables or passages of the source.

T1 sequence (P22303 32-614): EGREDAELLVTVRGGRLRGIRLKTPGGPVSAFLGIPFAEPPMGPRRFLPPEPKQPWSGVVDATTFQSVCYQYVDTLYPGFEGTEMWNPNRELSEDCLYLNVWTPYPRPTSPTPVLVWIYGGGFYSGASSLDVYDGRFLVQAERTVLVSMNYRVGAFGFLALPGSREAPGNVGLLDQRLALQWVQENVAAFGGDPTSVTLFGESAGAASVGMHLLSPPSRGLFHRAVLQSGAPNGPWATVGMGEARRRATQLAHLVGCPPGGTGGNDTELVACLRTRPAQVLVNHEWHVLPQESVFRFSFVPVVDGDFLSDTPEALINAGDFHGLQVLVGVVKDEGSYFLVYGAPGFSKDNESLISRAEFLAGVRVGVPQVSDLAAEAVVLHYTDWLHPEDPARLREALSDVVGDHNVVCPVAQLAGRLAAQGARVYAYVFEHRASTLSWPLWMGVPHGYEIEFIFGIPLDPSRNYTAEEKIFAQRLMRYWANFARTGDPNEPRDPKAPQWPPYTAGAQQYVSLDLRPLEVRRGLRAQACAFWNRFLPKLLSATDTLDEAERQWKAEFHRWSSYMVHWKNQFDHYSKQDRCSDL

For `COc1ccc2c3c1O[C@H]1C[C@@H](O)C=C[C@@]31CCN(C)C2` [Gal, Galantamine], in [1] (1.25 mg/mL), the reduction in viability was 17%. Also, in [1], the cytotoxic concentration (CC50) was roughly 5000 µM, the “concentrations at which cell viability remained comparable to controls” value is “up to 10 μM” and the “concentrations with significant reductions in viability” value was no less than 100 µM. Moreover, the “concentrations with no cytotoxic effect” value in data set [1] (differentiated SH-SY5Y cells) is on record as “up to 50 μM”.
Consider `OO` [H2O2], for which, in data set [2] (250 µM H2O2 alone, 24 h, compared to the control group), the average cell viability turned out to be 57.8 ± 5%. Moreover, in data set [3], the caspase-3 levels result is “significant increase in caspase-3 levels”. For the same compound, in [4], the “Neurite index (neurite/cell)” value is 0.8 ± 0.2 neurite/cell and 0.8 ± 0.2*^p=0.001 neurite/cell; the Neurite length was 39.6 ± 6.3 μm and 39.6 ± 6.3*^p=0.001 μm. Besides, in data set [5], the “AChE mRNA expression” value is on record as “significant upregulation of AChE mRNA expression”. In addition, in data set [6] (250 μM H2O2 alone, 24 h), the “increase of AChE activity compared to the control” value amounted to 1.45 fold.
For `CC[C@@H]1/C=C(\C)C[C@H](C)C[C@H](OC)[C@H]2O[C@@](O)(C(=O)C(=O)N3CCCC[C@H]3C(=O)O[C@H](/C(C)=C/[C@@H]3CC[C@H](Cl)[C@H](OC)C3)[C@H](C)[C@@H](O)CC1=O)[C@H](C)C[C@@H]2OC` [Pim, Pimecrolimus], the IC50 in [7] is 2.15 ± 0.1 µM. Also, the “cytotoxicity of drug alone” value in [8] is on record as “did not show detectable cytotoxicity”. In addition, the “protective effect on cell viability against H2O2” value (“protective effect” for short) in data set [2] (1 µM drug + 250 µM H2O2, 24 h) is recorded as “best protected cell viability”. The caspase-3 levels entry in [3] is “significantly attenuated this increase”. In [4], the “Neurite index (neurite/cell)” value was 1.1 ± 0.3 neurite/cell and the Neurite length came to 39.8 ± 5.7 μm. The “AChE mRNA expression” value in data set [5] is “significantly reduced AChE mRNA levels”.
`C=CC[C@@H]1/C=C(\C)C[C@H](C)C[C@H](OC)[C@H]2O[C@@](O)(C(=O)C(=O)N3CCCC[C@H]3C(=O)O[C@H](/C(C)=C/[C@@H]3CC[C@@H](O)[C@H](OC)C3)[C@H](C)[C@@H](O)CC1=O)[C@H](C)C[C@@H]2OC` [Tac, Tacrolimus] returned a half-maximal inhibitory concentration (IC50) in data set [7] of 4.24 ± 0.1 µM. In data set [9], the viability at 24 h, 1 µM turned out to be 55.2 ± 2.5% and the viability at 24 h, 10 µM worked out at 50.1 ± 2%. The “protective effect” value in data set [2] (setting [10]) is “not statistically significant”. Also, in data set [2], the “cell viability compared to H2O2 alone” value is “significantly reduced cell viability”. The caspase-3 levels result in data set [3] is “did not significantly modulate caspase-3 expression”. Further, in data set [4], the “Neurite index (neurite/cell)” value is recorded as 1.2 ± 0.1 neurite/cell and the Neurite length was determined as 34.5 ± 3.5 μm. Also, in [5], the “AChE mRNA expression” value is listed as “significantly reduced AChE mRNA levels”.
In the case of `C=C/C=C/C[C@@H](C)[C@@H](O)[C@H]1C(=O)N[C@@H](CC)C(=O)N(C)CC(=O)N(C)[C@@H](CC(C)C)C(=O)N[C@@H](C(C)C)C(=O)N(C)[C@@H](CC(C)C)C(=O)N[C@@H](C)C(=O)N[C@H](C)C(=O)N(C)[C@@H](CC(C)C)C(=O)N(C)[C@@H](CC(C)C)C(=O)N(C)[C@@H](C(C)C)C(=O)N1C` [Voc, Voclosporin], the “AChE inhibitory effect compared to galantamine” value in data set [7] (0.01 µM) is “higher AChE inhibitory effect compared to galantamine”. In data set [7] (read-out: IC50 against AChE, recombinant human AChE, Ellman method, 0.01–10 µM, four-parameter fit), the half-inhibitory concentration (IC50) came to 0.004 ± 0.0002 µM. In data set [9], this compound returned a viability at 24 h, 1 µM of 75.5 ± 4.8% and a viability at 24 h, 10 µM of 62.1 ± 3.6%. Also, the “protective effect” value in data set [2] (setting [10]) is “significantly increasing cell viability compared to the H2O2-only group”. The “cell viability compared to H2O2 alone” value in [2] is reported as “further decrease in cell viability; also recorded: significantly reduced cell viability”. The caspase-3 levels entry in [3] was “significantly attenuated this increase”. Besides, in [4], the “Neurite index (neurite/cell)” value is 1.3 ± 0.3^#p=0.02 neurite/cell and the Neurite length was 45.4 ± 5.5^#p=0.04 μm. For the same compound, the “AChE mRNA expression” value in data set [5] was “significantly reduced AChE mRNA levels”. Further, the AChE activity in data set [6] (0.1 μM drug + 250 μM H2O2, 24 h) was 96.3 ± 2.3%.

The CC50 is the concentration at which the toxic effect on the cells reaches its halfway point. The IC50 is the concentration at which inhibition is half-maximal. In general, viability refers to the share of living cells, or the viability signal relative to a control. Higher therefore signals less harm to the cells.
